Experimental findings from ChEMBL document CHEMBL1156294, “Novel inhibitors of basal glucose transport as potential anticancer agents” (2010) are described below.

What all share (type): functional
Assay [1] relates to NCI-H1299. Briefly: Inhibition of basal glucose transport in human H1299 cells assessed as inhibition of [3H]2-deoxyglucose uptake at 30 uM after 30 mins by scintillation counting relative to control.
Assay [2] in a line: Cytotoxicity against human H1299 cells at 30 uM after 48 hrs by MTT assay relative to control. The settings on record: NCI-H1299, 48 h, read-out: GI. Background: Tetrazolium dyes change colour on reduction, which living cells bring about.
Assay [3] relates to HeLa. In words: Inhibition of basal glucose transport in human HeLa cells assessed as inhibition of [3H]2-deoxyglucose uptake at 30 uM after 30 mins by scintillation counting.
In assay [4] the test system is RKO. In words: Inhibition of basal glucose transport in human RKO cells assessed as inhibition of [3H]2-deoxyglucose uptake at 30 uM after 30 mins by scintillation counting.
For assay [5], the system named is MCF7. Briefly: Inhibition of basal glucose transport in human MCF7 cells assessed as inhibition of [3H]2-deoxyglucose uptake at 30 uM after 30 mins by scintillation counting.

Regarding `O=C(Oc1ccc(Cl)cc1OC(=O)c1cccc(O)c1)c1cccc(O)c1`, in assay [1], the inhibition (usually the share of the control response that was lost under treatment) at 30 µM was 93.1%. Besides, in assay [2], the inhibition of growth at 30 µM came out at 44.5%.
In the same order, the values of `O=C(Oc1cccc(F)c1OC(=O)c1ccc(O)c(O)c1)c1ccc(O)c(O)c1` are 88.7% and 41.5%.
In the same order, the values of `COc1cccc(OC(=O)c2ccc(O)cc2)c1OC(=O)c1ccc(O)cc1` are 86.5% and 36.6%.
In the same order, the values of `O=C(Oc1cccc(F)c1OC(=O)c1cc(O)cc(O)c1)c1cc(O)cc(O)c1` are 94% and 35%.
Take `O=C(Oc1ccc(Cl)cc1OC(=O)c1ccc(O)cc1)c1ccc(O)cc1`: the inhibition at 30 µM in assay [1] came out at 79%.
For the compound `COc1ccc(C(=O)Oc2cccc(OC(=O)c3ccc(OC)c(OC)c3)c2OC(=O)c2ccc(OC)c(OC)c2)cc1OC`, the inhibition at 30 µM in assay [1] came out at 0%. Also, the inhibition of growth at 30 µM in assay [2] was determined as 10%.
In the same order, the values of `COc1cccc(OC(=O)c2ccccc2O)c1OC(=O)c1ccccc1O` are 50.5% and 18%.
In the same order, the values of `O=C(Oc1cccc(OC(=O)c2cc(O)cc(O)c2)c1OC(=O)c1cc(O)cc(O)c1)c1cc(O)cc(O)c1` are 98.7% and 41%.
In the same order, the values of `O=C(Oc1cccc(OC(=O)c2ccc(O)c(O)c2)c1OC(=O)c1ccc(O)c(O)c1)c1ccc(O)c(O)c1` are 94.7% and 42.2%.
With `COc1cccc(C(=O)Oc2cccc(OC)c2OC(=O)c2cccc(OC)c2)c1`, in assay [1], the inhibition at 30 µM was 32.1%. Further, in assay [2], the inhibition of growth at 30 µM came to 18.3%.
In the case of `O=C(Oc1cccc(OC(=O)c2ccccc2O)c1OC(=O)c1ccccc1O)c1ccccc1O`, in assay [1], the inhibition at 30 µM amounted to 74.7%.
The same measure, in the same setting: next, `COc1cccc(OC(=O)c2cccc(O)c2)c1OC(=O)c1cccc(O)c1`: 79%.
Consider `COc1cccc(OC)c1C(=O)Oc1cccc(OC(=O)c2c(OC)cccc2OC)c1OC(=O)c1c(OC)cccc1OC`, for which the inhibition at 30 µM in assay [1] is 75.8%.
With `O=C(Oc1cccc(OC(=O)c2ccc(O)cc2)c1OC(=O)c1ccc(O)cc1)c1ccc(O)cc1`, the inhibition at 30 µM in assay [1] worked out at 88.7%. The inhibition of growth at 30 µM in assay [2] was 34.8%.
In the same order, the values of `COc1cc(C(=O)Oc2cccc(F)c2OC(=O)c2cc(OC)c(OC)c(OC)c2)cc(OC)c1OC` are 7.9% and 19.6%.
`COc1cc(C(=O)Oc2cccc(OC(=O)c3cc(OC)c(OC)c(OC)c3)c2OC(=O)c2cc(OC)c(OC)c(OC)c2)cc(OC)c1OC`: the inhibition at 30 µM in assay [1] worked out at 41.1%.
Take `COc1cccc(OC(=O)c2ccc(O)c(O)c2)c1OC(=O)c1ccc(O)c(O)c1`: the inhibition at 30 µM in assay [1] amounted to 0%. In addition, in assay [2], the inhibition of growth at 30 µM is 32.4%.
On to `COc1cccc(OC(=O)c2cc(O)c(O)c(O)c2)c1OC(=O)c1cc(O)c(O)c(O)c1`, for which the inhibition at 30 µM in assay [3] came out at 46.3%; in assay [4], 57.2%; in assay [5], 33%; in assay [1] it was 58.4%. Moreover, the inhibition of growth at 30 µM in assay [2] was determined as 36%.
Take `O=C(Oc1ccc(Cl)cc1OC(=O)c1cc(O)cc(O)c1)c1cc(O)cc(O)c1`: the inhibition at 30 µM in assay [1] was 95.2%. In addition, the inhibition of growth at 30 µM in assay [2] came to 38.8%.
As to `COc1cccc(OC(=O)c2cc(O)cc(O)c2)c1OC(=O)c1cc(O)cc(O)c1`, the inhibition at 30 µM in assay [1] worked out at 69.4%.
As to `O=C(Oc1ccc(Cl)cc1OC(=O)c1ccc(O)c(O)c1)c1ccc(O)c(O)c1`, the inhibition at 30 µM in assay [1] was 94.4%. Moreover, the inhibition of growth at 30 µM in assay [2] is 45.2%.
In the same order, the values of `COc1cc(C(=O)Oc2ccc(Cl)cc2OC(=O)c2cc(OC)c(OC)c(OC)c2)cc(OC)c1OC` are 1.7% and 20.6%.
In the same order, the values of `COc1cc(C(=O)Oc2cccc(OC)c2OC(=O)c2cc(OC)c(OC)c(OC)c2)cc(OC)c1OC` are 33.3% and 22.2%.
Regarding `O=C(Oc1cccc(OC(=O)c2cc(O)c(O)c(O)c2)c1OC(=O)c1cc(O)c(O)c(O)c1)c1cc(O)c(O)c(O)c1`, the inhibition at 30 µM in assay [3] amounted to 36%; in assay [4] it was 58.1%; in assay [5], 60.4%; in assay [1], 86.1%. In assay [2], the inhibition of growth at 30 µM was found to be 39.9%.
As to `O=C(Oc1ccccc1OC(=O)c1ccc(O)cc1)c1ccc(O)cc1`, the inhibition at 30 µM in assay [1] was 57.5%.
As for `O=C(Oc1cccc(OC(=O)c2cccc(O)c2)c1OC(=O)c1cccc(O)c1)c1cccc(O)c1`, the inhibition at 30 µM in assay [1] was 99.7%. Also, in assay [2], the inhibition of growth at 30 µM is 59.3%.
In the same order, the values of `O=C(Oc1ccc(Cl)cc1OC(=O)c1ccccc1O)c1ccccc1O` are 51.6% and 26.6%.
As for `COc1cccc(C(=O)Oc2cccc(OC(=O)c3cccc(OC)c3)c2OC(=O)c2cccc(OC)c2)c1`, the inhibition at 30 µM in assay [1] amounted to 66.2%.
On the same count and under the same terms, next, `O=C(Oc1cccc(F)c1OC(=O)c1ccccc1O)c1ccccc1O`: 51%; `O=C(Oc1ccccc1OC(=O)c1cc(O)c(O)c(O)c1)c1cc(O)c(O)c(O)c1`: 32.1%; `O=C(Oc1ccc(Cl)cc1OC(=O)c1cc(O)c(O)c(O)c1)c1cc(O)c(O)c(O)c1`: 84.4%.
The same measure, in the same setting: for `O=C(Oc1cccc(F)c1OC(=O)c1cc(O)c(O)c(O)c1)c1cc(O)c(O)c(O)c1` the value was 81.1%.
As to `O=C(Oc1cccc(F)c1OC(=O)c1ccc(O)cc1)c1ccc(O)cc1`, the inhibition at 30 µM in assay [1] was found to be 92.6%. The inhibition of growth at 30 µM in assay [2] is 35.9%.
